In patent publication US20100040565A1, “ACTIVE DELIVERY SYSTEMS FORMULATIONS” (Castle Beach, LLC, priority 2008, published 2010):

Legend:
[1] = type: physicochemical
Protocol: DEET is incorporated into the pores, if any present, and onto the surfaces of a carrier. The evaporation rate of DEET from a thin film was then measured by weight. The film was smeared onto a glass slide and its weight was measured as a function of time. The initial weight of the film was 0.0231 grams and the area that was covered was […] (thickness ca 10 microns). The weight of the film leveled off at 0.019 grams when the DEET was fully evaporated, approximately 36 hours after application. Half of the DEET, about 2 milligrams on 3 square inches, remained 16 hours after application.

[2] = Behaviour of the permethrin-on-carrier formulation on substrates (activity duration, spreading, adherence); conditions: permethrin trapped in porous carrier (Silcron G100) in barrier/transfer agent composition

Row | Structure (SMILES) | Amount of DEET remaining ([1]; 16 h) | Time after application at which half of the DEET remained ([1]; thin film ca 10 microns on glass slide) | Time until DEET was fully evaporated from the film ([1]; thin film ca 10 microns smeared on glass slide, initial film weight 0.0231 grams, time after application) | Weight at which the film leveled off ([1]; when the DEET was fully evaporated, initial film weight 0.0231 grams) | Activity duration of permethrin in the formulation [2]
1 | CCN(CC)C(=O)c1cccc(C)c1 [DEET] | about 2 milligrams | 16 h | approximately 36 hours | 0.019 grams | –
2 | CC1(C)C(C=C(Cl)Cl)C1C(=O)OCc1cccc(Oc2ccccc2)c1 (centres unmarked) [permethrin] | – | – | – | – | significantly prolonged
